Our source for the Ki values is patent US9663513B2, “Pyrimidine PDE10 inhibitors” (Merck Sharp & Dohme Corp., priority 2012, dated 2017).

Sequence of human PDE10A2 (Q9Y233 267-1055): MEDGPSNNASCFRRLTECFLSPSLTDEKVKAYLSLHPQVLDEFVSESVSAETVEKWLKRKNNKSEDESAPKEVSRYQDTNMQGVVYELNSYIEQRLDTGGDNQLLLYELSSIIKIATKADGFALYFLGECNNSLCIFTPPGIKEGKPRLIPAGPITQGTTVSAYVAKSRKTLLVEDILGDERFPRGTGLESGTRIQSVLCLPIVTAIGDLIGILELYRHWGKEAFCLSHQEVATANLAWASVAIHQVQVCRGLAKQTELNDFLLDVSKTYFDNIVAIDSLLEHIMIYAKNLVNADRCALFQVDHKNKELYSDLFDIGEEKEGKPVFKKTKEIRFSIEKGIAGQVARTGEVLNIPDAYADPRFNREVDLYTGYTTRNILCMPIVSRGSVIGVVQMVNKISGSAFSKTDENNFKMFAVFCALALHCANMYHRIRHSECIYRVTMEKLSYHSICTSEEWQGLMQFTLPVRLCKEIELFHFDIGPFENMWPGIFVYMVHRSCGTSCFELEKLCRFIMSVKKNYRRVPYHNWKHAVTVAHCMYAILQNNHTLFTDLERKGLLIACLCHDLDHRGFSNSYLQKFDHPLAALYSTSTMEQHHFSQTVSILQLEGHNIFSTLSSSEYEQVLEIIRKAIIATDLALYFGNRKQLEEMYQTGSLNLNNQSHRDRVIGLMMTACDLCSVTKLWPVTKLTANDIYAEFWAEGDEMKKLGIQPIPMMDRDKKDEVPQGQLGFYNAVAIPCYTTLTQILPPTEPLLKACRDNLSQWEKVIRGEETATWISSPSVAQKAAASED

This assay deals with human PDE10A2 (Homo sapiens (Human), UniProt Q9Y233). The assay can be described thus: PDE10 fluorescence polarization (IMAP FP) inhibition assay. Type of assay: biochemical. The conditions noted are these: human PDE10A2 from transfected AD293 cells; FAM-labeled cAMP 50 nM; apparent inhibition constant; read-out: PDE10A Ki. As to the method:
The activity of the compounds in accordance with the present invention as PDE10 inhibitors may be readily determined without undue experimentation using a fluorescence polarization (FP) methodology that is well known in the art (Huang, W., et al., J. Biomol Screen, 2002, 7: 215).
In a typical experiment the PDE10 inhibitory activity of the compounds of the present invention was determined in accordance with the following experimental method. PDE10A2 was amplified from human fetal brain cDNA (Clontech, Mountain View, Calif.) using a forward primer corresponding to nucleotides 56-77 of human PDE10A2 (Accession No. AF127480, Genbank Identifier 4894716), containing a Kozak consensus sequence, and a reverse primer corresponding to nucleotides 2406-2413 of human PDE10A2 (Accession No. AF127480, Genbank Identifier 4894716). Amplification with Easy-A polymerase (Stratagene, La Jolla, Calif.) was 95° C. for 2 minutes followed by thirty three cycles of 95° C. for 40 seconds, 55° C. for 30 seconds, and 72° C. for 2 minutes 48 seconds. Final extension was 72° C. for 7 minutes. The PCR product was TA cloned into pcDNA3.2-TOPO (Invitrogen, Carlsbad, Calif.) according to standard protocol. AD293 cells with 70-80% confluency were transiently transfected with human PDE10A2/pcDNA3.2-TOPO using Lipofectamine 2000 according to manufacturer specifications (Invitrogen, Carlsbad, Calif.). Cells were harvested 48 hours post-transfection and lysed by sonication (setting 3, 10×5 sec pulses) in a buffer containing 20 mM HEPES, 1 mM EDTA and protease inhibitor cocktail (Roche). Lysate was collected by centrifugation at 75,000×g for 20 minutes. Supernatant containing the cytoplasmic fraction was used for evaluation of PDE10A2 activity. The fluorescence polarization assay for cyclic nucleotide phosphodiesterases was performed using an IMAP® FP kit supplied by Molecular Devices, Sunnyvale, Calif. (product # R8139). IMAP® technology has been applied previously to phosphodiesterase assays (Huang, W., et al., J. Biomol Screen, 2002, 7: 215). Assays were performed at room temperature in 384-well microtiter plates with an incubation volume of 20.2 μL. Solutions of test compounds were prepared in DMSO and serially diluted with DMSO to yield 8 μL of each of 10 solutions differing by 3-fold in concentration, at 32 serial dilutions per plate. […] 0% of inhibition is determined by using DMSO (1% final concentrations).
A Labcyte Echo 555 (Labcyte, Sunnyvale, Calif.) is used to dispense 200 nL from each well of the titration plate to the 384 well assay plate. A solution of enzyme (1/1600 dilution from aliquots; sufficient to produce 20% substrate conversion) and a separate solution of FAM-labeled cAMP PDE from Molecular Devices (product # R7506), at a final concentration of 50 nM are made in the assay buffer (10 mM Tris HCl, pH 7.2, 10 mM MgCl2, 0.05% NaN3 0.01% Tween-20, and 1 mM DTT). The enzyme and the substrate are then added to the assay plates in two consecutive additions of 10 μL, and then shaken to mix. The reaction is allowed to proceed at room temperature for 30 minutes. […] The enzymatic reaction is stopped by addition of 60 μL of the binding solution to each well of the assay plates and the plates are sealed and shaken for 10 seconds. The plate was incubated at room temperature for at least one hour prior to determining the fluorescence polarization (FP). The parallel and perpendicular fluorescence of each well of the plate was measured using a Perkin Elmer EnVision™ plate reader (Waltham, Mass.).
Fluorescence polarization (mP) was calculated from the parallel (S) and perpendicular (P) fluorescence of each sample well and the analogous values for the median control well, containing only substrate (So and Po), using the following equation: Polarization(mP)=1000*(S/So−P/Po)/(S/So+P/Po).
Dose-inhibition profiles for each compound were characterized by fitting the mP data to a four-parameter equation given below.
A general note: Fluorescence polarisation rises when a labelled molecule tumbles more slowly, as on binding a larger partner.
On to `Cc1ccc([C@H]2C[C@@H]2COc2nc(C)ncc2-c2cc(C)ccc2C)nc1` [Example 13, 5-(2,5-dimethylphenyl)-2-methyl-4-(((1S,2S)-2-(5-methylpyridin-2-yl)cyclopropyl)methoxy)pyrimidine], for which the Ki is 0.7 nM. As for `Cc1ccc([C@H]2C[C@@H]2COc2nc(C)ncc2-c2ccccc2C(F)(F)F)nc1` [Example 14, 2-methyl-4-(((1S,2S)-2-(5-methylpyridin-2-yl)cyclopropyl)methoxy)-5-(2-(trifluoromethyl)phenyl)pyrimidine], the figure is 3.1 nM. As for `Cc1ccc([C@H]2C[C@@H]2COc2nc(C)ncc2-c2ccc(F)c(F)c2)nc1` [Example 15, 5-(3,4-difluorophenyl)-2-methyl-4-(((1S,2S)-2-(5-methylpyridin-2-yl)cyclopropyl)methoxy)pyrimidine], the figure is 1.11 nM.

Regarding `COc1ncccc1-c1cnc(C)nc1OC[C@H]1C[C@@H]1c1ccc(C)cn1` [Example 16, 5-(2-methoxypyridin-3-yl)-2-methyl-4-(((1S,2S)-2-(5-methylpyridin-2-yl)cyclopropyl)methoxy)pyrimidine], the Ki was found to be 0.74 nM. As for `Cc1ccc([C@H]2C[C@@H]2COc2nc(C)ncc2-c2ccncc2C(F)(F)F)nc1` [Example 17, 2-methyl-4-(((1S,2S)-2-(5-methylpyridin-2-yl)cyclopropyl)methoxy)-5-(3-(trifluoromethyl)pyridin-4-yl)pyrimidine], the figure is 0.59 nM; as for `Cc1ccc([C@H]2C[C@@H]2COc2nc(C)ncc2-c2ccnc(F)c2)nc1` [Example 19, 5-(2-fluoropyridin-4-yl)-2-methyl-4-(((1S,2S)-2-(5-methylpyridin-2-yl)cyclopropyl)methoxy)pyrimidine], 0.55 nM. As for `COc1ccc([C@H]2C[C@@H]2COc2nc(C)ncc2-c2ccnc(F)c2)nc1` [Example 21, 5-(2-fluoropyridin-4-yl)-4-(((1S,2S)-2-(5-methoxypyridin-2-yl)cyclopropyl)methoxy)-2-methylpyrimidine], the figure is 0.33 nM.

As to `Cc1ccc(-c2cnc(C)nc2OC[C@H]2C[C@@H]2c2ccc3ccccc3n2)cn1` [Example 42, 2-((1S,2S)-2-((2-methyl-5-(6-methylpyridin-3-yl)pyrimidin-4-yloxy)methyl)cyclopropyl)quinoline], the Ki came out at 0.02 nM. As for `Cc1ccc([C@H]2C[C@@H]2COc2nc(C)ncc2-c2cnc(C(C)(C)O)cc2C)nc1` [Example 45, 2-(4-Methyl-5-(2-methyl-4-(((1S,2S)-2-(5-methylpyridin-2-yl)cyclopropyl)methoxy)pyrimidin-5-yl)pyridin-2-yl)propan-2-ol], the figure is 0.02 nM; as for `COC(=O)c1ccc(-c2cnc(C)nc2OC[C@H]2C[C@@H]2c2ccc(C)cn2)cn1` [Example 47, methyl 5-(2-methyl-4-(((1S,2S)-2-(5-methylpyridin-2-yl)cyclopropyl)methoxy)pyrimidin-5-yl)picolinate], 2.2 nM; as for `Cc1ccc([C@H]2C[C@@H]2COc2nc(C)ncc2-c2ccc3[nH]ccc3c2)nc1` [Example 48, 5-(2-methyl-4-(((1S,2S)-2-(5-methylpyridin-2-yl)cyclopropyl)methoxy)pyrimidin-5-yl)-1H-indole], 3.25 nM.

Consider `Cc1ccc([C@H]2C[C@@H]2COc2nc(C)ncc2-c2cccoc2=O)nc1` [Example 49, 3-(2-methyl-4-(((1S,2S)-2-(5-methylpyridin-2-yl)cyclopropyl)methoxy)pyrimidin-5-yl)-2H-pyran-2-one], for which the Ki stood at 22.4 nM. As for `Cc1ccc([C@H]2C[C@@H]2COc2nc(C)ncc2-c2ccc(=O)oc2)nc1` [Example 50, 5-(2-methyl-4-(((1S,2S)-2-(5-methylpyridin-2-yl)cyclopropyl)methoxy)pyrimidin-5-yl)-2H-pyran-2-one], the figure is 4.28 nM; as for `Cc1ccc([C@H]2C[C@@H]2COc2nc(C)ncc2C2=CCOCC2)nc1` [Example 51, 5-(3,6-dihydro-2H-pyran-4-yl)-2-methyl-4-(((1S,2S)-2-(5-methylpyridin-2-yl)cyclopropyl)methoxy)pyrimidine], 1.96 nM. As for `COc1nncc(-c2cnc(C)nc2OC[C@H]2C[C@@H]2c2ccc(C)cn2)c1Cl` [Example 52, 4-chloro-3-methoxy-5-(2-methyl-4-(((1S,2S)-2-(5-methylpyridin-2-yl)cyclopropyl)methoxy)pyrimidin-5-yl)pyridazine], the figure is 2.36 nM; as for `Cc1ccc([C@H]2C[C@@H]2COc2nc(C)ncc2-c2cc(O)ccn2)nc1` [Example 53, 2-(2-methyl-4-(((1S,2S)-2-(5-methylpyridin-2-yl)cyclopropyl)methoxy)pyrimidin-5-yl)pyridin-4-ol], 25.5 nM.

`C=Cc1cnc(C)nc1OC[C@H]1C[C@@H]1c1ccc(C)cn1` [Example 54, 2-methyl-4-(((1S,2S)-2-(5-methylpyridin-2-yl)cyclopropyl)methoxy)-5-vinylpyrimidine]: the Ki was 10.4 nM.

For `Cc1ccc([C@H]2C[C@@H]2COc2nc(C)ncc2-c2cnc(C)cc2C)nc1` [Example 55, 5-(4,6-dimethylpyridin-3-yl)-2-methyl-4-(((1S,2S)-2-(5-methylpyridin-2-yl)cyclopropyl)methoxy)pyrimidine], the Ki worked out at 0.87 nM. For the molecule `COc1cc(-c2cnc(C)nc2OC[C@H]2C[C@@H]2c2ccc(C)cn2)cnn1` [Example 56, 3-methoxy-5-(2-methyl-4-(((1S,2S)-2-(5-methylpyridin-2-yl)cyclopropyl)methoxy)pyrimidin-5-yl)pyridazine], the Ki came to 6.12 nM. As for `COCCOc1ccc(-c2cnc(C)nc2OC[C@H]2C[C@@H]2c2ccc(C)cn2)cn1` [Example 57, 5-(6-(2-methoxyethoxy)pyridin-3-yl)-2-methyl-4-(((1S,2S)-2-(5-methylpyridin-2-yl)cyclopropyl)methoxy)pyrimidine], the figure is 0.57 nM. As for `Cc1ccc([C@H]2C[C@@H]2COc2nc(C)ncc2-c2cnnc(C)c2)nc1` [Example 58, 3-methyl-5-(2-methyl-4-(((1S,2S)-2-(5-methylpyridin-2-yl)cyclopropyl)methoxy)pyrimidin-5-yl)pyridazine], the figure is 3.02 nM; as for `Cc1ccc([C@H]2C[C@@H]2COc2nc(C)ncc2-c2cnnc(Br)c2)nc1` [Example 59, 3-bromo-5-(2-methyl-4-(((1S,2S)-2-(5-methylpyridin-2-yl)cyclopropyl)methoxy)pyrimidin-5-yl)pyridazine], 4.34 nM; as for `Cc1ccc([C@H]2C[C@@H]2COc2nc(C)ncc2C2=CC(=O)OC2)nc1` [Example 60, 4-(2-methyl-4-(((1S,2S)-2-(5-methylpyridin-2-yl)cyclopropyl)methoxy)pyrimidin-5-yl)furan-2(5H)-one], 13.9 nM.

For the molecule `Cc1ccc([C@H]2C[C@@H]2COc2nc(C)ncc2-c2ccc(OC(C)C)nc2C)nc1` [Example 61, 5-(6-isopropoxy-2-methylpyridin-3-yl)-2-methyl-4-(((1S,2S)-2-(5-methylpyridin-2-yl)cyclopropyl)methoxy)pyrimidine], the Ki turned out to be 1.51 nM. As for `Cc1ccc([C@H]2C[C@@H]2COc2nc(C)ncc2-c2cnsc2)nc1` [Example 62, 4-(2-methyl-4-(((1S,2S)-2-(5-methylpyridin-2-yl)cyclopropyl)methoxy)pyrimidin-5-yl)isothiazole], the figure is 2.02 nM; as for `COc1ccc([C@H]2C[C@@H]2COc2nc(C)ncc2-c2ccc(S(C)(=O)=O)nc2)nc1` [Example 63, 4-(((1S,2S)-2-(5-methoxypyridin-2-yl)cyclopropyl)methoxy)-2-methyl-5-(6-(methylsulfonyl)pyridin-3-yl)pyrimidine], 2.95 nM.
